According to PMC8355587, “The Potential of Lisosan G as a Possible Treatment for Glaucoma” (Frontiers in Pharmacology, 2021):
Where two headings read alike, the source gives them in different places.

Tests used:
[1] = UHPLC-MS of LG components in the retina after LG gavage; type: in vivo, mouse; details: for retinal levels 24 h after LG administration: longest time period investigated; for AUC 0-24h in the retina / C max in the retina: *mg of retinal tissue (wet weight), n = 3; for Tmax: retina, 4.15 g LG/Kg of body weight
Method: For the analysis of different LG components reaching the retina after LG ingestion, a total of eighteen 6-mo-old D2 mice received an oral administration of LG solution by gavage. The retinas of three mice were dissected and quickly frozen in liquid nitrogen after 0 or 30 min and after 1, 2, 6, or 24 h. The retinas were stored at −80°C until used for mass spectrometry.
Assuming an average mouse body weight of 20 g, this dose corresponded to 4.15 g LG/Kg of body weight (human equivalent dose, 340 mg LG/Kg of body weight).
The main components of LG were determined in the LG powder (1 mg sample) using the same procedure as described below for the retinas. The most abundant were gallic acid, 4-hydroxybenzoic acid, quercetin, and nicotinamide (Table 2), therefore these metabolites were chosen as the LG components to be determined in the retina. To this aim, LG was administered to the mice by gavage and the retinas were dissected at different time points. The two retinas from each mouse were pooled together and they were resuspended in 0.2 ml of ice cold ultra-pure water (18 MΏ-cm) to lyse the cells. Three independent samples were analyzed for each time point. The tubes were plunged into dry ice or in a circulating bath at −25°C for 0.5 min and then into a water bath at 37°C for 0.5 min. Subsequently, 0.6 ml of −20°C methanol and then 0.4 ml of −20°C chloroform were added to each tube. The tubes were mixed every 5 min for 30 min, then they were centrifuged at 1000 × g for 1 min at 4°C, before being transferred to −20°C for 2–8 h. After centrifugation at 15,000 × g for 10 min at 4°C, the supernatants were collected and dried. Finally, the dried samples were resuspended in 0.1 ml of water and transferred to glass autosampler vials for LC-MS analysis. The supernatants were injected (20 μl) into a UHPLC system (Ultimate 3000; ThermoFisher Scientific, Waltham, MA, United States) and run in negative ion mode for determination of 4-hydroxy benzoic acid and in positive ion mode for the other. A ReproSil C18 column (2.0 mm × 150 mm, 2.5 μm; Dr Maisch, Ammerbuch-Entringen, Germany) was used for metabolite separation. […] For positive ion mode (+) MS analyses, a 0–100% linear gradient of solvent A (ddH2O, 0.1% formic acid) to B (acetonitrile, 0.1% formic acid) was employed over 20 min returning to 100% A in 3 min. For negative ion mode chromatographic separations A 0–100% linear gradient of solvent A (double-distilled 18 MΏ-cm water, […]) to B (100% acetonitrile, 10 mm ammonium acetate) was employed over 20 min, returning to 100% A in 3 min and a […] solvent A hold. The UHPLC system was coupled online with a mass spectrometer Q Exactive (ThermoFisher) scanning in full MS mode (2 μ scans) at 70,000 resolution in the 60–1000 m/z range. Data files were processed by MAVEN. 8.1 (http://genomics-pubs.princeton.edu/mzroll/) upon conversion of raw files into mzXML format through MassMatrix (Yellow Springs, OH, United States). Standard curves were obtained with several calibration points (2–0.00002 mg) of gallic acid, 4-hydroxybenzoic acid, quercetin, and nicotinamide analytical standards (Sigma Aldrich, St Louis, MO, United States).

[2] = parameters: method as in printed; details: general statement, no test and ref not given; cited from earlier work
[3] = D2 mice, LG by gavage 1 ml of 83 mg LG/ml (4.15 g LG/Kg)

O=C(O)c1cc(O)c(O)c(O)c1 [Gallic acid, gallic acid]
T max in the retina ([1]; D2, mouse, in vivo, po): 30 min
retinal levels 24 h after LG administration [1]: still in the range of its maximum concentration

O=C(O)c1ccc(O)cc1 [Hydroxy benzoic acid, 4-hydroxybenzoic acid]
T max in the retina [1, 3]: 30 min
AUC 0-24h in the retina [1, 3]: 958.500 ± 291.500 ng·h/mg
C max in the retina [1, 3]: 444.250 ± 109.713 ng/mg
solubility in water [2]: only slightly soluble in water

NC(=O)c1cccnc1 [Nicotinamide, nicotinamide]
Tmax ([1]; D2, mouse, po, after LG administration by gavage, read-out: time of maximum concentration in the retina): 360 min
AUC 0-24h in the retina [1, 3]: 106.900 ± 52.210 ng·h/mg
C max in the retina [1, 3]: 8.040 ± 1.274 ng/mg
retinal levels 24 h after LG administration [1]: detectable, although low

O=c1c(O)c(-c2ccc(O)c(O)c2)oc2cc(O)cc(O)c12 [Quercetin, quercetin]
AUC 0-24h in the retina [1, 3]: 0.263 ± 0.049 ng·h/mg
C max in the retina [1, 3]: 0.061 ± 0.016 ng/mg
time within which retinal levels decreased ([1]; after LG administration by gavage): ≤ 2 h
Tmax ([1]; mouse, po, D2 mice, LG by gavage 1 ml of 83 mg LG/ml (4.15 g LG/Kg), read-out: T max in the retina): 30 min
